Results as given in paper PMC5542777 (Bioorganic & medicinal chemistry letters, 2017).

What was measured:
[1] = Oral pharmacokinetics in mice; format: in vivo; conditions: oral gavage 50 mg/kg
[2] = Brain penetration in mice; format: in vivo; conditions: for brain permeability / brain penetration: 5 mg/kg IP; for Kp at 60 min: mouse, brain and plasma, ip

| SMILES | plasma exposure [1] | brain permeability / brain penetration ([2]; mice) | Kp at 60 min ([2]; 5 mg/kg) | brain levels ([2]; mice, 60 min after IP injection, 5 mg/kg) |
| --- | --- | --- | --- | --- |
| CN(CCN[C@@H]1CCNc2c(Cl)cc(Cl)cc21)c1nc2nc(Cl)ccc2[nH]1 [Compound 13] | low plasma exposure | moderately good brain penetration | 0.191 ± 0.075 | – |
| Clc1cc(Br)cc(CN[C@H]2CCCN(c3nc4nc(Cl)ccc4[nH]3)C2)c1 [Compound 5b] | – | poor | – | undetectable |
| CCOc1c(Br)cc(Br)cc1CN[C@H]1CCCN(c2nc3nc(Cl)ccc3[nH]2)C1 [Compound 5p] | – | – | 0.044 ± 0.006 | – |
